According to PubChem BioAssay (NCI):
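Each compound was tested at five concentrations against cells in 96-well plates for 48 hours. GI50 = concentration required for 50% inhibition of growth. TGI is the concentration that stops growth completely.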

Key:
Test in all cases: growth of human tumour cells (NCI), 48 h
786-0 renal = tested on: 786-0 renal
A498 renal = tested on: A498 renal
A549 NSCLC = tested on: A549 NSCLC
ACHN renal = tested on: ACHN renal
BT-549 breast = tested on: BT-549 breast
CAKI-1 renal = tested on: CAKI-1 renal
CCRF-CEM leukemia = tested on: CCRF-CEM leukemia
COLO 205 colon = tested on: COLO 205 colon
DU-145 prostate = tested on: DU-145 prostate
EKVX NSCLC = tested on: EKVX NSCLC
HCC-2998 colon = tested on: HCC-2998 colon
HCT-116 colon = tested on: HCT-116 colon
HCT-15 colon = tested on: HCT-15 colon
HOP-62 NSCLC = tested on: HOP-62 NSCLC
HOP-92 NSCLC = tested on: HOP-92 NSCLC
HS 578T breast = tested on: HS 578T breast
HT29 colon = tested on: HT29 colon
IGROV1 ovarian = tested on: IGROV1 ovarian
KM12 colon = tested on: KM12 colon
LOX IMVI melanoma = tested on: LOX IMVI melanoma
M14 melanoma = tested on: M14 melanoma
MCF7 breast = tested on: MCF7 breast
MDA-MB-231 breast = tested on: MDA-MB-231 breast
MDA-MB-435 = tested on: MDA-MB-435
MOLT-4 leukemia = tested on: MOLT-4 leukemia
NCI-H226 lung = tested on: NCI-H226 lung
NCI-H23 lung = tested on: NCI-H23 lung
NCI-H460 lung = tested on: NCI-H460 lung
NCI-H522 lung = tested on: NCI-H522 lung
NCI/ADR-RES ovarian = tested on: NCI/ADR-RES ovarian
OVCAR-3 ovarian = tested on: OVCAR-3 ovarian
OVCAR-4 ovarian = tested on: OVCAR-4 ovarian
OVCAR-5 ovarian = tested on: OVCAR-5 ovarian
OVCAR-8 ovarian = tested on: OVCAR-8 ovarian
PC-3 prostate = tested on: PC-3 prostate
RPMI-8226 leukemia = tested on: RPMI-8226 leukemia
RXF 393 renal = tested on: RXF 393 renal
SF-268 CNS = tested on: SF-268 CNS
SF-295 CNS = tested on: SF-295 CNS
SK-MEL-2 melanoma = tested on: SK-MEL-2 melanoma
SK-MEL-28 melanoma = tested on: SK-MEL-28 melanoma
SK-MEL-5 melanoma = tested on: SK-MEL-5 melanoma
SK-OV-3 ovarian = tested on: SK-OV-3 ovarian
SN12C renal = tested on: SN12C renal
SNB-19 CNS = tested on: SNB-19 CNS
SNB-75 CNS = tested on: SNB-75 CNS
SR leukemia = tested on: SR leukemia
SW-620 colon = tested on: SW-620 colon
T-47D breast = tested on: T-47D breast
TK-10 renal = tested on: TK-10 renal
U251 CNS = tested on: U251 CNS
UACC-257 melanoma = tested on: UACC-257 melanoma
UO-31 renal = tested on: UO-31 renal
K-562 leukemia = tested on: K-562 leukemia
MALME-3M melanoma = tested on: MALME-3M melanoma
SF-539 CNS = tested on: SF-539 CNS
UACC-62 melanoma = tested on: UACC-62 melanoma

## O=C(c1ccc(Nc2nccc(NCCCCNc3ccnc4cc(Cl)ccc34)n2)cc1)N1CCCCC1
786-0 renal
  GI50: 1.46 µM
  TGI: 2.82 µM
A498 renal
  GI50: 0.674 µM
  TGI: 6.22 µM
A549 NSCLC
  GI50: 1.3 µM
  TGI: 11.9 µM
ACHN renal
  GI50: 3.32 µM
  TGI: 11.3 µM
BT-549 breast
  GI50: 1.75 µM
  TGI: 3.42 µM
CAKI-1 renal
  GI50: 2.77 µM
  TGI: 8.84 µM
CCRF-CEM leukemia
  GI50: 1.48 µM
  TGI: > 100 µM
COLO 205 colon
  GI50: 1.52 µM
  TGI: 3.25 µM
DU-145 prostate
  GI50: 3.53 µM
  TGI: 14.3 µM
EKVX NSCLC
  GI50: 3.86 µM
  TGI: 19.8 µM
HCC-2998 colon
  GI50: 1.91 µM
  TGI: 5.42 µM
HCT-116 colon
  GI50: 1.01 µM
  TGI: 2.42 µM
HCT-15 colon
  GI50: 1.69 µM
  TGI: 6.43 µM
HOP-62 NSCLC
  GI50: 2.24 µM
  TGI: 6.02 µM
HOP-92 NSCLC
  GI50: 1.52 µM
  TGI: 3.95 µM
HS 578T breast
  GI50: 1.8 µM
  TGI: 4.62 µM
HT29 colon
  GI50: 1.31 µM
  TGI: 6.57 µM
IGROV1 ovarian
  GI50: 2.83 µM
  TGI: 9.08 µM
KM12 colon
  GI50: 2.94 µM
  TGI: 11 µM
LOX IMVI melanoma
  GI50: 0.971 µM
  TGI: 2.33 µM
M14 melanoma
  GI50: 1.71 µM
  TGI: 3.43 µM
MCF7 breast
  GI50: 1.83 µM
  TGI: 7.64 µM
MDA-MB-231 breast
  GI50: 1.86 µM
  TGI: 4.97 µM
MDA-MB-435
  GI50: 1.7 µM
  TGI: 3.89 µM
MOLT-4 leukemia
  GI50: 1.74 µM
  TGI: 5.99 µM
NCI-H226 lung
  GI50: 3.59 µM
  TGI: 13.7 µM
NCI-H23 lung
  GI50: 2.95 µM
  TGI: 15.7 µM
NCI-H460 lung
  GI50: 0.475 µM
  TGI: 2.98 µM
NCI-H522 lung
  GI50: 2.22 µM
  TGI: 4.89 µM
NCI/ADR-RES ovarian
  GI50: 12.6 µM
  TGI: > 100 µM
OVCAR-3 ovarian
  GI50: 1.92 µM
  TGI: 4.63 µM
OVCAR-4 ovarian
  GI50: 1.95 µM
  TGI: 7.52 µM
OVCAR-5 ovarian
  GI50: 4.32 µM
  TGI: 25.9 µM
OVCAR-8 ovarian
  GI50: 2.63 µM
  TGI: 8.74 µM
PC-3 prostate
  GI50: 0.955 µM
  TGI: 7.89 µM
RPMI-8226 leukemia
  GI50: 0.999 µM
  TGI: 4.44 µM
RXF 393 renal
  GI50: 1.33 µM
  TGI: 2.82 µM
SF-268 CNS
  GI50: 2.36 µM
  TGI: 8.31 µM
SF-295 CNS
  GI50: 1.54 µM
  TGI: 3.33 µM
SK-MEL-2 melanoma
  GI50: 2.08 µM
  TGI: 4.03 µM
SK-MEL-28 melanoma
  GI50: 2.04 µM
  TGI: 4.67 µM
SK-MEL-5 melanoma
  GI50: 1.61 µM
  TGI: 2.98 µM
SK-OV-3 ovarian
  GI50: 5.45 µM
  TGI: 18 µM
SN12C renal
  GI50: 2.38 µM
  TGI: 9.29 µM
SNB-19 CNS
  GI50: 3.89 µM
  TGI: 21.1 µM
SNB-75 CNS
  GI50: 1.58 µM
  TGI: 3.35 µM
SR leukemia
  GI50: 0.219 µM
  TGI: 1.5 µM
SW-620 colon
  GI50: 0.589 µM
  TGI: 2.17 µM
T-47D breast
  GI50: 2.08 µM
  TGI: 5.6 µM
TK-10 renal
  GI50: 2.16 µM
  TGI: 4.83 µM
U251 CNS
  GI50: 1.53 µM
  TGI: 3.38 µM
UACC-257 melanoma
  GI50: 1.75 µM
  TGI: 3.34 µM
UO-31 renal
  GI50: 1.69 µM
  TGI: 3.79 µM

## C=C1C(O)C2CC(C)(C)C(=O)C2=C(CC(C)C)C12CC2 (stereo unspecified)
786-0 renal
  GI50: > 100 µM
  TGI: > 100 µM
A498 renal
  GI50: > 100 µM
  TGI: > 100 µM
A549 NSCLC
  GI50: > 100 µM
  TGI: > 100 µM
ACHN renal
  GI50: > 100 µM
  TGI: > 100 µM
BT-549 breast
  GI50: > 100 µM
  TGI: > 100 µM
CAKI-1 renal
  GI50: > 100 µM
  TGI: > 100 µM
CCRF-CEM leukemia
  GI50: 98.1 µM
  TGI: > 100 µM
COLO 205 colon
  GI50: > 100 µM
  TGI: > 100 µM
DU-145 prostate
  GI50: > 100 µM
  TGI: > 100 µM
EKVX NSCLC
  GI50: > 100 µM
  TGI: > 100 µM
HCC-2998 colon
  GI50: > 100 µM
  TGI: > 100 µM
HCT-116 colon
  GI50: > 100 µM
  TGI: > 100 µM
HCT-15 colon
  GI50: > 100 µM
  TGI: > 100 µM
HOP-62 NSCLC
  GI50: > 100 µM
  TGI: > 100 µM
HOP-92 NSCLC
  GI50: > 100 µM
  TGI: > 100 µM
HS 578T breast
  GI50: > 100 µM
  TGI: > 100 µM
HT29 colon
  GI50: > 100 µM
  TGI: > 100 µM
IGROV1 ovarian
  GI50: 55.6 µM
  TGI: > 100 µM
K-562 leukemia
  GI50: > 100 µM
  TGI: > 100 µM
KM12 colon
  GI50: > 100 µM
  TGI: > 100 µM
LOX IMVI melanoma
  GI50: > 100 µM
  TGI: > 100 µM
M14 melanoma
  GI50: > 100 µM
  TGI: > 100 µM
MALME-3M melanoma
  GI50: > 100 µM
  TGI: > 100 µM
MCF7 breast
  GI50: > 100 µM
  TGI: > 100 µM
MDA-MB-231 breast
  GI50: > 100 µM
  TGI: > 100 µM
MDA-MB-435
  GI50: > 100 µM
  TGI: > 100 µM
MOLT-4 leukemia
  GI50: 72 µM
  TGI: > 100 µM
NCI-H23 lung
  GI50: > 100 µM
  TGI: > 100 µM
NCI-H460 lung
  GI50: > 100 µM
  TGI: > 100 µM
NCI-H522 lung
  GI50: 85 µM
  TGI: > 100 µM
NCI/ADR-RES ovarian
  GI50: > 100 µM
  TGI: > 100 µM
OVCAR-3 ovarian
  GI50: > 100 µM
  TGI: > 100 µM
OVCAR-4 ovarian
  GI50: > 100 µM
  TGI: > 100 µM
OVCAR-5 ovarian
  GI50: > 100 µM
  TGI: > 100 µM
OVCAR-8 ovarian
  GI50: > 100 µM
  TGI: > 100 µM
PC-3 prostate
  GI50: > 100 µM
  TGI: > 100 µM
RPMI-8226 leukemia
  GI50: 36 µM
  TGI: > 100 µM
RXF 393 renal
  GI50: > 100 µM
  TGI: > 100 µM
SF-268 CNS
  GI50: > 100 µM
  TGI: > 100 µM
SF-295 CNS
  GI50: > 100 µM
  TGI: > 100 µM
SF-539 CNS
  GI50: > 100 µM
  TGI: > 100 µM
SK-MEL-2 melanoma
  GI50: > 100 µM
  TGI: > 100 µM
SK-MEL-28 melanoma
  GI50: > 100 µM
  TGI: > 100 µM
SK-MEL-5 melanoma
  GI50: > 100 µM
  TGI: > 100 µM
SK-OV-3 ovarian
  GI50: > 100 µM
  TGI: > 100 µM
SN12C renal
  GI50: > 100 µM
  TGI: > 100 µM
SNB-19 CNS
  GI50: > 100 µM
  TGI: > 100 µM
SR leukemia
  GI50: 62.4 µM
  TGI: > 100 µM
SW-620 colon
  GI50: > 100 µM
  TGI: > 100 µM
T-47D breast
  GI50: > 100 µM
  TGI: > 100 µM
TK-10 renal
  GI50: > 100 µM
  TGI: > 100 µM
U251 CNS
  GI50: > 100 µM
  TGI: > 100 µM
UACC-257 melanoma
  GI50: > 100 µM
  TGI: > 100 µM
UACC-62 melanoma
  GI50: > 100 µM
  TGI: > 100 µM
UO-31 renal
  GI50: > 100 µM
  TGI: > 100 µM
